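Method: 48-hour compound exposure of cells in 96-well plates, five concentrations, linear interpolation of endpoints. GI50 is the concentration that inhibits growth by half. TGI: total growth inhibition.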
Experiments:
Assay in all cases: growth of human tumour cells (NCI), 48 h
K-562 leukemia = test system: K-562 leukemia
NCI-H226 lung = test system: NCI-H226 lung
SR leukemia = test system: SR leukemia
SK-OV-3 ovarian = test system: SK-OV-3 ovarian
KM12 colon = test system: KM12 colon
HCC-2998 colon = test system: HCC-2998 colon
786-0 renal = test system: 786-0 renal
A549 NSCLC = test system: A549 NSCLC
LOX IMVI melanoma = test system: LOX IMVI melanoma
SF-295 CNS = test system: SF-295 CNS

SMILES	GI50 (K-562 leukemia)	TGI (K-562 leukemia)	GI50 (NCI-H226 lung)	TGI (NCI-H226 lung)	GI50 (SR leukemia)	TGI (SR leukemia)	GI50 (SK-OV-3 ovarian)	TGI (SK-OV-3 ovarian)	GI50 (KM12 colon)	TGI (KM12 colon)	GI50 (HCC-2998 colon)	TGI (HCC-2998 colon)	GI50 (786-0 renal)	TGI (786-0 renal)	GI50 (A549 NSCLC)	TGI (A549 NSCLC)	GI50 (LOX IMVI melanoma)	TGI (LOX IMVI melanoma)	GI50 (SF-295 CNS)	TGI (SF-295 CNS)
COc1cc(C)cc2c1OC(c1ccccc1)CC2=O (stereo not given)	> 100 µM	> 100 µM	> 100 µM	> 100 µM	> 100 µM	> 100 µM	> 100 µM	> 100 µM	> 100 µM	> 100 µM	> 100 µM	> 100 µM	> 100 µM	> 100 µM	> 100 µM	> 100 µM	> 100 µM	> 100 µM	> 100 µM	> 100 µM
CCN(CC)c1ccc(/C=N/NC(=O)c2ccc(Nc3ccnc(C(F)(F)F)c3)cc2)c(O)c1	0.147 µM	3.47 µM	0.288 µM	2.34 µM	0.0862 µM	0.672 µM	0.324 µM	8.36 µM	0.316 µM	4.1 µM	0.25 µM	1.4 µM	0.188 µM	0.447 µM	0.439 µM	> 100 µM	0.14 µM	0.922 µM	0.122 µM	0.927 µM
Cc1c(C(=O)/C=C/c2ccc(O)cc2)nnn1-c1ccnc2c(C(F)(F)F)cccc12	2.64 µM	> 100 µM	27.3 µM	> 100 µM	2.29 µM	9.86 µM	15.1 µM	72.5 µM	8.92 µM	> 100 µM	20.9 µM	> 100 µM	> 100 µM	> 100 µM	8.55 µM	> 100 µM	6.41 µM	> 100 µM	25.8 µM	> 100 µM
Cc1cccc2c3c(sc12)C(c1ccc(Cl)cc1)C(C#N)=C(/N=C/c1ccc(Cl)cc1)O3 (stereo not given)	0.281 µM	> 46.5 µM	0.75 µM	> 19.7 µM	0.36 µM	> 34.9 µM	3.62 µM	40 µM	0.448 µM	> 100 µM	1.04 µM	11.2 µM	0.653 µM	27.8 µM	0.489 µM	> 100 µM	0.651 µM	> 100 µM	0.267 µM	2.37 µM
C/C(=N\NC(N)=S)c1ccc(/C(C)=N/NC(N)=S)cc1	–	> 100 µM	–	> 100 µM	–	> 100 µM	–	> 100 µM	–	> 100 µM	–	> 100 µM	–	> 100 µM	–	> 100 µM	–	> 100 µM	–	> 100 µM
CCc1ccccc1NC(=O)CCc1nc(=S)[nH][nH]1	–	> 100 µM	–	> 100 µM	–	> 100 µM	–	> 100 µM	–	> 100 µM	–	> 100 µM	–	> 100 µM	–	> 100 µM	–	> 100 µM	–	> 100 µM
COc1ccc(C2(CN(C)C)COc3cc(OC)c(OC)cc3C2=O)cc1OC (stereo not given)	–	> 100 µM	–	> 100 µM	–	> 100 µM	–	> 100 µM	–	> 100 µM	–	> 100 µM	–	> 100 µM	–	> 100 µM	–	31.1 µM	–	> 100 µM
COc1ccc2c(c1)[nH]c(=O)c1c3cccnc3cn21	0.0271 µM	19.8 µM	0.0409 µM	18.6 µM	0.0271 µM	5.75 µM	0.0464 µM	> 52 µM	0.0377 µM	17.5 µM	0.0744 µM	17.7 µM	0.066 µM	15.8 µM	0.0479 µM	24.4 µM	0.0679 µM	14 µM	0.0339 µM	5.9 µM
FC(F)(F)c1ccc2c(c1)N(CCCN1CCN(C3CC3)CC1)c1ccccc1S2	3.98 µM	20.5 µM	10.7 µM	23.4 µM	3.79 µM	15.6 µM	12.9 µM	26.6 µM	7.68 µM	21 µM	13.6 µM	27.5 µM	15.4 µM	30.3 µM	10.9 µM	23.5 µM	13.7 µM	28.3 µM	3.74 µM	18.4 µM
C[C@]12CC[C@H]3[C@@H](CCC4=CC(=O)CC[C@@H]43)[C@@H]1CC[C@@H]2OC1(O)C(=O)c2ccccc2C1=O	–	> 100 µM	–	> 100 µM	–	> 100 µM	–	> 100 µM	–	> 100 µM	–	> 100 µM	–	83.5 µM	–	> 100 µM	–	> 100 µM	–	> 100 µM

From PubChem BioAssay (NCI)
